Results as given in ChEMBL document CHEMBL3526076, “Species-dependent and receptor-selective action of bilobalide on the function of constitutive androstane receptor and pregnane X receptor” (Drug Metab Dispos, 2012).

Assays:
[1] = target: T1, Nuclear receptor subfamily 1 group I member 3 (Homo sapiens, UniProt Q14994); assay: Activation of human CAR expressed in human HepG2 cells coexpressing CYP2B6 at 10 uM after 24 hrs by dual luciferase reporter gene assay; format: ADME, cell-based; settings: hepg2, 24 h
T1 sequence (Q14994 whole entry): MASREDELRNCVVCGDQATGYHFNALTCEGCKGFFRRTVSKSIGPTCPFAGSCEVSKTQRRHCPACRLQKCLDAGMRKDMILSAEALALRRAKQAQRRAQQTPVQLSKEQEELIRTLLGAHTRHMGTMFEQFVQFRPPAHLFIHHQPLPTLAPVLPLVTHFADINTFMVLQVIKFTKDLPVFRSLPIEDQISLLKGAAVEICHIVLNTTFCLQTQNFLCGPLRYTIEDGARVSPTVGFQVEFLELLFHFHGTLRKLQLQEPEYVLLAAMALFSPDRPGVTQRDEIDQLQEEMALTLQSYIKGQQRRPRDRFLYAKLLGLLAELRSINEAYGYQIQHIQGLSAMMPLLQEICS

[2] = target: T2, Nuclear receptor subfamily 1 group I member 3 (Rattus norvegicus, UniProt Q9QUS1); assay: Activation of rat CAR expressed in rat hepatocytes coexpressing CYP2B1 at 1 uM after 24 hrs by dual luciferase reporter gene assay; format: ADME, cell-based, Hepatocyte
T2 sequence (Q9QUS1 whole entry): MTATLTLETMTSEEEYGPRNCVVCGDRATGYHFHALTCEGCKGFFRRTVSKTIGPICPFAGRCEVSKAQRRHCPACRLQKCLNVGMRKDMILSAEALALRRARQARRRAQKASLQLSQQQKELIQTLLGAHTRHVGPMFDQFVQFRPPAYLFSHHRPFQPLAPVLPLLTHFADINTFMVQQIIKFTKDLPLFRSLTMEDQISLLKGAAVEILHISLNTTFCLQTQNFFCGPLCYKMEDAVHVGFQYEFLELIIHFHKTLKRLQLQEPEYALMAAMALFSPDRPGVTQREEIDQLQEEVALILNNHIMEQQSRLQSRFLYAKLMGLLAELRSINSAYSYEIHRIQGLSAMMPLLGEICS

PXR (CYP3A4 reporter) [3] = target: T3, PXR (CYP3A4 reporter) (Rattus norvegicus, UniProt Q9R1A7); assay: Activation of rat PXR expressed in rat hepatocytes coexpressing CYP3A4 at 10 uM after 24 hrs by dual luciferase reporter gene assay relative to control; settings: rat hepatocytes expressing rat PXR and coexpressing CYP3A4
T3 sequence (Q9R1A7 whole entry): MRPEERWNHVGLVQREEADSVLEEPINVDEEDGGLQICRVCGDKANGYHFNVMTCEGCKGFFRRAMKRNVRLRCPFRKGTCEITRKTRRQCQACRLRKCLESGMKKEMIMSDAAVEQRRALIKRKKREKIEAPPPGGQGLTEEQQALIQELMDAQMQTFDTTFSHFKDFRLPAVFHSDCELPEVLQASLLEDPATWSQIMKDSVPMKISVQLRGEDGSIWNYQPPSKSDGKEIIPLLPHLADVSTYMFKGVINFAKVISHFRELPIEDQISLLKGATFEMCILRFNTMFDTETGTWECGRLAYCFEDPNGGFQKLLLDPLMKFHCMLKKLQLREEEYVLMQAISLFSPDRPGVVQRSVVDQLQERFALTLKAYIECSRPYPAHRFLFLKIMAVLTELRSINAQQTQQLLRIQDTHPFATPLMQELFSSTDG

PXR (CYP3A4 reporter) [4] = target: T3, PXR (CYP3A4 reporter); assay: Activation of rat PXR expressed in human HepG2 cells coexpressing CYP3A4 at 0.1 to 10 uM after 24 hrs by dual luciferase reporter gene assay relative to control; settings: human HepG2 cells expressing rat PXR and coexpressing CYP3A4
[5] = target: T4, Nuclear receptor subfamily 1 group I member 2 (Homo sapiens, UniProt O75469); assay: Activation of human PXR expressed in rat hepatocytes coexpressing CYP3A4 at 10 uM after 24 hrs by dual luciferase reporter gene assay relative to control
T4 sequence (O75469 whole entry): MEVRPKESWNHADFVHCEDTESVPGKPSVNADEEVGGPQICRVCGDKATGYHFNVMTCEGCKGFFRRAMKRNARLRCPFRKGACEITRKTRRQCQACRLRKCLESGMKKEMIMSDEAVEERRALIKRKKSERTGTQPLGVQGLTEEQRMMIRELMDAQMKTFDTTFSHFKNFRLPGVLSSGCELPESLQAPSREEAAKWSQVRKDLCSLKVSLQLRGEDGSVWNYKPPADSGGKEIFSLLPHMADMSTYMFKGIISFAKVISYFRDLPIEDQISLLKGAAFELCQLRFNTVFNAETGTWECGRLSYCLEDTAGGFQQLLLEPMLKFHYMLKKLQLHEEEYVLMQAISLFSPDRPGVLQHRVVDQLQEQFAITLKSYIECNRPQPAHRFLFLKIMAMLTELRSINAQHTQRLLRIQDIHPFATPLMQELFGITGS

[6] = target: T4, Nuclear receptor subfamily 1 group I member 2; assay: Activation of human PXR expressed in human HepG2 cells coexpressing CYP3A4 at 10 uM after 24 hrs by dual luciferase reporter gene assay relative to control; settings: hepg2, 24 h
[7] = target: T5, Nuclear receptor subfamily 1 group I member 2 (Rattus norvegicus, UniProt Q9R1A7); assay: Antagonist activity at rat PXR expressed in human HepG2 cells coexpressing CYP3A4 assessed as inhibition of PCN-induced receptor activation at 30 uM after 24 hrs by dual luciferase reporter gene assay; format: ADME, cell-based; settings: hepg2, 24 h
T5 sequence (Q9R1A7 whole entry): T3 sequence (Q9R1A7 whole entry)

[8] = target: T4, Nuclear receptor subfamily 1 group I member 2; assay: Antagonist activity at human PXR expressed in human HepG2 cells coexpressing CYP3A4 assessed as inhibition of rifampicin-induced receptor activation at 30 uM after 24 hrs by dual luciferase reporter gene assay; format: ADME, cell-based; settings: hepg2, 24 h
[9] = target: T1, Nuclear receptor subfamily 1 group I member 3; assay: Activation of human CAR expressed in rat hepatocytes coexpressing CYP2B1 at 1 uM after 24 hrs by dual luciferase reporter gene assay; format: ADME, cell-based, Hepatocyte
[10] = target: T1, Nuclear receptor subfamily 1 group I member 3; assay: Activation of human CAR expressed in human HepG2 cells coexpressing CYP2B6 at 0.25 uM after 24 hrs by dual luciferase reporter gene assay; format: ADME, cell-based; settings: hepg2, 24 h
[11] = target: T6, CYP2B activity (CAR activation) (Rattus norvegicus, UniProt Q9QUS1); assay: Activation of CAR in rat hepatocytes assessed as increase in CYP2B-mediated benzyloxyresorufin O-dealkylation at 100 uM after 24 hrs by spectrofluorometric analysis relative to control; format: ADME, cell-based, Hepatocyte; settings: probe benzyloxyresorufin (O-dealkylation), read-out: FC
T6 sequence (Q9QUS1 whole entry): T2 sequence (Q9QUS1 whole entry)

[12] = target: T7, CYP2B1 mRNA (CAR activation) (Rattus norvegicus, UniProt Q9QUS1); assay: Activation of CAR in rat hepatocytes assessed as upregulation of CYP2B1 mRNA expression at 100 uM after 24 hrs by RT-PCR analysis relative to control; format: ADME, cell-based, Hepatocyte; settings: read-out: FC
T7 sequence (Q9QUS1 whole entry): T2 sequence (Q9QUS1 whole entry)

CAR (CYP2B1 reporter) = target: T8, CAR (CYP2B1 reporter) (Rattus norvegicus, UniProt Q9QUS1); assay: Activation of rat CAR expressed in rat hepatocytes coexpressing CYP2B1 at 100 uM after 24 hrs by dual luciferase reporter gene assay relative to control; format: ADME, cell-based, Hepatocyte; settings: rat hepatocytes expressing rat CAR and coexpressing CYP2B1, read-out: FC
T8 sequence (Q9QUS1 whole entry): T2 sequence (Q9QUS1 whole entry)

## Clc1ccc(-c2nc3sccn3c2/C=N/OCc2ccc(Cl)c(Cl)c2)cc1
[1]
  Activity: Active
[2]
  Activity: Not Active

## CC(=O)[C@H]1[C@H](C#N)C[C@H]2[C@@H]3CC=C4C[C@@H](O)CC[C@]4(C)[C@H]3CC[C@@]21C [PREGNENOLONE CARBONITRILE]
PXR (CYP3A4 reporter) [3]
  fold induction at 24 h, 10 µM: 9
PXR (CYP3A4 reporter) [4]
  fold induction at 24 h, 10 µM: 19
[5]
  Activity: Not Active
[6]
  Activity: Not Active

## CC(=O)N1CCN(c2ccc(OCC3COC(Cn4ccnc4)(c4ccc(Cl)cc4Cl)O3)cc2)CC1 (stereo not drawn) [KETOCONAZOLE]
[7]
  inhibition (INH): Active
[8]
  inhibition (INH): Active

## Clc1cnc(Oc2ccc(Oc3ncc(Cl)cc3Cl)cc2)c(Cl)c1
[9]
  Activity: Not Active
[10]
  Activity: Not Active

## CCC1(c2ccccc2)C(=O)NC(=O)NC1=O [PHENOBARBITAL SODIUM]
[11]
  fold induction at 24 h, 100 µM: 12
[12]
  fold induction at 24 h, 100 µM: 48
CAR (CYP2B1 reporter)
  fold induction at 24 h, 100 µM: 9
